Data taken from US20120083464A1, “NEUROPROTECTIVE PROPERTIES OF 5'-METHYLTHIOADENOSINE” (priority 2009, published 2012).
“Also recorded” adds a separate entry of the source.

Assays:
[1] = system: IL-1β release; assay: LPS neuroinflammation model in cerebellar organotypic cultures: IL1-beta ELISA; assay type: cell-based, C57/B16 wild type mice; settings: 192 μM MTA pre-treatment, 15 μg/ml LPS, 3 hrs
Text: (§1) Organotypic cultures model of neuroinflammation is based on previous observations in which systemic injections of lipopolysaccharide (LPS) in mice spinal cord induce inflammation, demyelinization and Wallerian degeneration. In mice cerebellar organotypic cultures, LPS induces microglia activation with consequent demyelination and axonal damage. In particular, LPS induces TNF-alpha, IL1-beta release, axonal swelling and end bulbs due to axonal transport block, and a decrease of axonal density. Organotypic cultures represent the best model to represent in vivo mechanisms since they maintain cell-cell interaction and organotypic structure of brain region studied. In this way, this in vitro neuroinflammation model reproduces the microglia activation, demyelinization and axonal damage phenomena observed in MS.
(§2) Cerebellar organotypic cultures which were pre-treated for half hour with 192 μM of MTA and 15 μg/ml of LPS have been used to generate neuroinflammation model.
(§3) 2. Data analysis: Western blot, immunofluorescence and ELISA analysis were performed using conventional techniques.

[2] = system: cerebellar organotypic cultures; assay: LPS neuroinflammation model in cerebellar organotypic cultures: demyelination and axonal damage (immunofluorescence, Western blot); assay type: cell-based, C57/B16 wild type mice; settings: 192 μM MTA pre-treatment for half hour, 15 μg/ml LPS, 24 hrs
Text: as §1, §2, §3

[3] = system: isolated optic nerve; assay: Simulated ischemia (OGD) in isolated optic nerves, LDH release; design: species or system Sprague Dawley rats; settings: 1 h ischemia with iodoacetate + 2 h reperfusion; MTA 100-300 μM
Description: Ischemic damage was induced by substituting […] and adding 1 mM of the glyocolytic blocker iodoacetate (1 mM) for 1 h followed by 2 h of reperfusion in […] aCSF. Optic nerves during ischemia and reperfusion were incubated with vehicle, for controls, and with MTA or glutamate receptor antagonists, and subsequently processed for LDH release assay. The results are the mean±SEM of at least three different experiments performed in duplicate.
Cell viability in oligodendrocyte cultures was assayed after 24 h of exposure to MTA (1 μM to 3 mM) calcein-AM assays respectively followed by fluorimetry measurements (Synergy-HT). Oligodendrocyte protection from excitotoxicity and optic nerve damage after ischemia (1 hour+2 hours reperfusion) were examined using lactate dehydrogenase release assays in the presence or absence of MTA (100-300 μM for 3 hours).

[4] = system: oligodendrocytes derived from the optic nerve; assay: MTA toxicity profile in cultured oligodendrocytes (calcein-AM); assay type: cell-based; settings: MTA 1 μM-3 mM for 24 hours
Description: Primary cultures of oligodendrocytes derived from optic nerves of 12-d-old Sprague Dawley rats were obtained as described previously (Barres et al., 1992). Cells were seeded into 24-well plates bearing 12-mm-diameter coverslips coated with poly-D-lysine (10 μg/ml) at a density of 5×10^3 cells per well. Cells were maintained at 37° C. and 5% CO2 in a chemically defined medium (Barres et al., 1992, Cell 70:31-46). After 2-4 d in vitro, cultures were composed of at least 98% O4/galactocerebroside-positive (O4/Ga1C_) cells; the majority of the remaining cells were stained with antibodies to glial fibrillary acidic protein (GFAP). No A2B5+ or microglial cells were detected in these cultures (Alberdi et al., 2002, Neurobiol Dis 9:234-243).
Cell toxicity and viability assays were performed as described previously (Sánchez-Gómez and Matute, 1999, Neurobiol Dis 6:475-485). For evaluating the MTA toxicity, cells at 2-4 d in culture were exposed for 24 hours to that drug and cell viability assessed using calcein-AM (Invitrogen). […] Twenty-four hours after drug application, cell viability was assessed using calcein-AM (Invitrogen). The total number of surviving cells on each coverslip emitting calcein fluorescence was counted, and results were expressed as percentage of cell death versus control. Results were expressed as the mean±SEM of at least three independent experiments performed in duplicate. […]

[5] = system: pure rat cortical neuronal culture; assay: NMDA-mediated toxicity (LDH release) in pure neuronal culture; assay type: cell-based, Sprague-Dawley rat; settings: NMDA 300 μM, MTA 100 to 500 μM
Description: Primary cultures of brain cortical neurons were essentially prepared as described previously (Bruno et al., 2001, Eur. J. Neurosci., 13:1469-1478). The fronto-lateral cortical lobes were dissected out of Sprague-Dawley embryonic day 17 foetuses and were mechanically dissociated in Hanks' balanced solution. The cortical lobes were triturated by aspirating 7-10 times using a Pasteur pipette with a flame-narrowed tip. After centrifugation at 800 g for 5 min, cells were resuspended in serum-free Neurobasal medium (GIBCO) supplemented with B27 (GIBCO) containing 2 mM L-glutamine, penicillin (20 units/ml) and streptomycin (5 μg/ml) and plated on poly-L-lysine-coated 24-well culture plates or on poly-L-lysine-coated 6-well culture plates. […]
For viability experiments, cortical neurons or mixed cortical neurons and glia, seeded onto 24-well plates at 15×10^4 cells/well and cultured for 7 DIV, were treated with vehicle (DMSO 1‰), NMDA (300 μM), NMDA (300 μM)+MTA (at different concentrations) or NMDA (300 μM)+MK-801 (10 μM) for 6 h and 24 h. […] Lactate dehydrogenase (LDH) activity was measured as an index of cellular death and mortality was expressed as percentage of LDH released to culture media. LDH was measured spectrophotometrically at 490 nm on a 96-well plate reader by using the Cytotox 96 Kit according to the manufacturer instructions (Promega). […]

[6] = system: caspase 3 activity; assay: NMDA-mediated increase in caspase 3 activity in pure neuronal culture; assay type: cell-based, Sprague-Dawley rat; settings: NMDA 300 μM, MTA 100 to 500 μM
Description: Primary cultures of brain cortical neurons were essentially prepared as described previously (Bruno et al., 2001, Eur. J. Neurosci., 13:1469-1478). The fronto-lateral cortical lobes were dissected out of Sprague-Dawley embryonic day 17 foetuses and were mechanically dissociated in Hanks' balanced solution. The cortical lobes were triturated by aspirating 7-10 times using a Pasteur pipette with a flame-narrowed tip. […]
Cortical neurons or mixed cortical neurons and glia were plated on poly-L-lysine-coated 6-well culture plates and after 7 DIV, cells were treated with vehicle or NMDA (300 μM) for different periods of time. […] Extracts were then centrifuged at 5,000×g for 10 min at 4° C., and protein content was determined by using the BCA protein assay according to the manufacturer instructions. Cell extracts (40 μg of protein) were incubated in reaction buffer (25 mM Hepes, 10% sucrose, 0.1% CHAPS, 10 mM DTT) containing 50 μM fluorescence substrate Z-DEVD-AFC at 37° C. for 1 h. Cleavage of the AFC fluorophore was determined in a spectrofluorometer at excitation wavelength of 400 nm and fluorescence was detected at an emission wavelength of 505 nm. Caspase 3 activity was expressed as units of fluorescence/mg of protein/h (Posadas et al., 2009, Pharm. Res., In press).

## CSC[C@H]1O[C@@H](n2cnc3c(N)ncnc32)[C@H](O)[C@@H]1O [MTA, 5′-methylthioadenosine]
[1]
  IL-1β release (ELISA): decreases; also recorded: minor quantity
[2]
  demyelination and axonal damage (MBP/NFL immunofluorescence, CNPase/APP Western blot): prevents; also recorded: absents
[3]
  OGD/ischemia-induced damage in isolated optic nerve (LDH release): similarly protective
[4]
  MTA concentrations at which significant toxicity was observed (calcein-AM): above 300 μM
[5]
  effect on NMDA-mediated toxicity (LDH release): no neuroprotective effect; also recorded: Lack of effect
[6]
  effect on NMDA-mediated increase in caspase 3 activity: Lack of effect
